Measurements: patent US20100004159A1, “SUBSTITUTED IMIDAZOLONE DERIVATIVES, PREPARATIONS AND USES” (GENFIT, priority 2006, published 2010)
pEC50: −log10 of the molar value.

Assays:
[1] = tested on: ApoE2/E2 mouse; assay: Plasma lipids and cholesterol distribution in dyslipidemic ApoE2/E2 mouse; type: in vivo; conditions: for total cholesterol level / triglyceride level: 7 days per os
Procedure: The hypolipemic properties of the compounds according to the invention were evaluated in vivo by assaying plasma lipids and by an analysis of the gene expression of PPARs target genes, in the liver after a treatment of the dyslipidemic E2/E2 mice with the compounds according to the invention.
The murine model used is the ApoE2/E2 mouse, a transgenic mouse having human apolipoprotein E isoform E2 (Sullivan P M et al., 1998). In human, this apolipoprotein, a constituent of the low and the very low density lipoproteins (LDL-VLDL), exists in three isoforms E2, E3, and E4. The E2 form has a mutation affecting the amino acid of position 158, which considerably weakens the affinity of this protein for the receptors to LDL., the VLDL clearance is nearly non-existent.
The ApoE2/E2 transgenic mice were kept on a 12 hour/12 hour light/dark cycle at a constant temperature of 20±3° C. After a one week acclimatization period, the mice were weighed and divided into groups of 5 animals selected so as to render uniform the distribution of their body weights and their plasma lipid levels, determined before the experiment. The tested compounds were suspended in carboxymethylcellulose (Sigma C4888) and administered by intra-gastric tube feeding, once a day for 7 days at the chosen dose. The animals had free access to food and water. At the end of the experiment, the animals were anesthetized after a 4 hour fast, a blood sample was taken using anticoagulant (EDTA), then the mice were weighed and euthanized. The plasma was separated by centrifugation at 3000 rotations/minute for 20 minutes. The samples were kept at +4° C.
Plasma lipid concentrations (total cholesterol and triglycerides) were measured by enzymatic assays (bioMerieux-Lyon-France) according to the provider's recommendations.
The different lipid fractions (VLDL, LDL,HDL) of the plasma were separated by gel-filtration chromatography. The concentrations of cholesterol of each fraction were then measured by enzymatic assays (bioMerieux-Lyon-France) according to the provider's recommendations.

[2] = target: T1, hPPARα (Homo sapiens, UniProt Q07869); assay: Gal4-hPPARα transactivation in COS-7 cells (luciferase); type: cell-based; conditions: for pEC50: Gal4-hPPARα chimera, COS-7 cells, 24 hours
T1 construct: DNA fragments amplified by PCR and corresponding to the DEF domains of human PPARα, PPARγ, and PPARδ nuclear receptors; expressed in transfected cells; host or cells: COS-7
T1 sequence (Q07869 239-466 limits assumed): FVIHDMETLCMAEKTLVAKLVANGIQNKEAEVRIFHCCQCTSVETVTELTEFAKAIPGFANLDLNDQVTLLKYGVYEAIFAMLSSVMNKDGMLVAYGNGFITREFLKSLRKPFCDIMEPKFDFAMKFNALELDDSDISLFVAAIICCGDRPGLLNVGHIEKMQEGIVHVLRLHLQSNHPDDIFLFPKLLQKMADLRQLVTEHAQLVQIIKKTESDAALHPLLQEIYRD
Procedure: The activation of PPARs was evaluated in vitro using a monkey kidney fibroblast line (COS-7) by measuring the transcriptional activity of chimeras made up of the DNA binding domain of the Gal4 transcription factor of yeast and of the binding domain to the ligand of the different PPARs. The compounds were tested at doses of between 0.01 and 100 μM on Gal4-PPARα, γ, and δ chimeras.
COS-7 cells came from ATCC (American type culture collection) and were cultivated in a DMEM medium supplemented with 10% (vol/vol) of fetal calf serum, 100 U/ml of penicillin (Gibco, Paisley, UK) and 2 mM of L-Glutamine (Gibco, Paisley, UK). The cells were incubated at 37° C. under humid atmosphere containing 5% CO2.
The plasmids Gal4(RE)_TkpGL3, pGal4-hPPARα, pGal4-hPPARγ, pGal4-hPPARδ and pGal4-φ have been described in the literature (Raspe E et al., 1999). The constructions pGal4-hPPARα, pGal4-hPPARγ, and pGal4-hPPARδ were obtained by cloning, in the pGal4-φ vector, DNA fragments amplified by PCR and corresponding to the DEF domains of human PPARα, PPARγ, and PPARδ nuclear receptors.
The COS-7 cells in suspension were transfected with 150 ng of DNA per well, with a pGal4-PPAR/Gal4(RE)_TkpGL3 ratio of 1/10, in presence of 10% fetal calf serum. The cells were then plated in 96-well plates (4×10^4 cells/well), then incubated for 24 hours at 37° C. Activation with the test compounds was performed for 24 hours at 37° C. in a medium without serum. At the end of the experiment, the cells were lysed and the luciferase activity was determined using the Steady-Lite™ HTS (Perkin Elmert) or the Steady Glow Luciferase kit (Promega), in accordance with the provider's recommendations.
The compounds according to the invention were tested at doses between 0,01 and 100 μM on the 3 PPAR isoforms. The results obtained are presented in detail under FIG. 1a.

[3] = 7-day treatment, 10, 30 and 100 mpk

Row | pEC50 [2] | activation of hPPARα (luciferase activity) ([2]; COS-7 cells transfected pGal4-hPPAR, 0.01 to 100 μM) | SMILES | HDL-cholesterol fraction [1, 3] | cholesterol in VLDL and LDL fractions [1, 3] | total cholesterol level ([1]; 10, 30 or 100 mpk) | triglyceride level ([1]; 10, 30 or 100 mpk) | total cholesterol level ([1]; 25, 50, 100 and 200 mpk) | triglyceride level ([1]; 25, 50, 100 and 200 mpk)
1 | 6.22 |  | CCCCC1=NC2(CCCCC2)C(=O)N1Cc1ccc(-c2cccc(OC(C)(C)C(=O)O)c2)cc1 [Compound 21, 2-butyl-1-[(3′-((1-carboxy-1,1-dimethylmethyl)oxy)biphenyl-4-yl)methyl]-4-spirocyclohexyl-1H-imidazol-5(4H)-one] | significant increase | significant decrease | remarkable dose-dependently decrease | remarkable dose-dependently decrease |  | 
2 | 5.52 | activate the two PPAR isoforms | CCCCC1=NC2(CCCC2)C(=O)N1Cc1ccc(-c2cccc(OC(C)(C)C(=O)O)c2)cc1 [Compound 1, 2-butyl-1-[(3′-((1-carboxy-1,1-dimethylmethyl)oxy)biphenyl-4-yl)methyl]-4-spirocyclopentyl-1H-imidazol-5(4H)-one] |  |  |  |  | remarkable dose-dependently decrease | remarkable dose-dependently decrease
